How the values were obtained:
[1] = Aqueous solubility of the salts from base screening; type: physicochemical; settings: salt of the acid of Formula I with the named base
CRTH2 = biological target: T1, CRTH2 (Homo sapiens, UniProt Q9Y5Y4); assay: Competitive radioligand (3H-PGD2) binding assay using CRTH2-transfected cells; settings: 1 nM 3H-PGD2, FIG. 20
T1 construct: expressed in transfected cells
T1 sequence (Q9Y5Y4 1-395): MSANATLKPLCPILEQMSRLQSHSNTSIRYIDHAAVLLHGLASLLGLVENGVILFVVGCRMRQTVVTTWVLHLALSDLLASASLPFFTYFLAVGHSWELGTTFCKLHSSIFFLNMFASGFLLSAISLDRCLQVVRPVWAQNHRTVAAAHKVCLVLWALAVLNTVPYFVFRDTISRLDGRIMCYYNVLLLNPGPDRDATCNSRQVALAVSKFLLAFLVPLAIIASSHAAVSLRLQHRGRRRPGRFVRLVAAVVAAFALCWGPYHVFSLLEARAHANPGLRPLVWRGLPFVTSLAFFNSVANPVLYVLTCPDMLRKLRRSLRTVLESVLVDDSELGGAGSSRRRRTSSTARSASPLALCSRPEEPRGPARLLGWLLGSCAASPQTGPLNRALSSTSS
Protocol: The surface expression of CRTH2 on the transfected cell lines was monitored periodically during culture and prior to each competitive radioligand binding assay. […] The cells were then washed in 2 mL of FACS buffer (PBS containing 1% BSA (Fraction V) and 0.1% sodium azide. The cells were subsequently incubated on ice with a FITC-conjugated anti-rat antibody (goat anti-rat Ig-FITC). After washed with cold FACS buffer, the cells were analyzed using a FACScan II analyzer and CellQuest software, both from Becton Dickinson (Mountain View, Calif.).
The test compounds were dissolved in DMSO at a concentration of 100 mM as stock solutions. Serial dilutions from 10 μM were made in binding buffer prior to assay. Transfected cells were resuspended in binding buffer (50 mM Tris-HCl, 40 mM MgCl2, and 0.1% bovine serum albumin, at pH 7.4) at a concentration of 4×10^6/mL at room temperature. Transfected cells were then seeded in U-bottom polypropylene 96-well plates (Fisher) by adding 50 μL of the cell suspension, followed by addition of 10 μL of ^3H-PGD2, 10 μL of the test compound solutions at a series of concentrations or controls, 30 μL of the binding buffer to bring the final volume to 100 μL. […] Scintillant (50 μL; Microscint™20, Perkin Elmer, Boston, Mass.) was added to each well and the radioactivity was counted on a TopCount (Packard Bioscience, Meriden, Conn.). […]

DP1 = biological target: T2, DP1 (Homo sapiens, UniProt Q13258); assay: Competitive radioligand (3H-PGD2) binding assay using DP1-transfected cells; settings: CRTH2- versus DP1-transfected cells, FIGS. 20 and 21
T2 sequence (Q13258 1-359): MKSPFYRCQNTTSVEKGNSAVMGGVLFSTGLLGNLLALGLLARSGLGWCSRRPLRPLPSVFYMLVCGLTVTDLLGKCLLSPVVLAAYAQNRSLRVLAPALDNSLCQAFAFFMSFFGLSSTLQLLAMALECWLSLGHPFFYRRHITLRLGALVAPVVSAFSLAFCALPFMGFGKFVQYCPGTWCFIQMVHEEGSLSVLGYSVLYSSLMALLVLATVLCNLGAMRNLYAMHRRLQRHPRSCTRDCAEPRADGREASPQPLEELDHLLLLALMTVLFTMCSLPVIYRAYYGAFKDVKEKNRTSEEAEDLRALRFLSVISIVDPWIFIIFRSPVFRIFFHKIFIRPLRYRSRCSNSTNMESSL
Protocol: The binding affinity and selectivity of the amine salts of 4,6-bis(dimethylamino)-2-(4-(4-(trifluoromethyl)benzamido)benzyl)pyrimidin-5-yl}acetic acid provided herein were evaluated using a competitive radioligand binding assay with stably-transfected cell lines expressing CRTH2 or DP1.
The CRTH2 and DP1 stable cell lines were generated according to the procedure described by Sugimoto et al. (J. Pharm. Exp. Therap. 2003, 305, 347-352). These cell lines were maintained in RPMI 1640 culture medium containing HEPES buffer (25 mM), FCS (10%), L-glutamine (2 mM), penicillin (10 IU/mL), streptomycin (100 μg/mL), and puromycin (1 μg/mL).
Radioligand binding analyses were performed according to the methods of Sugimoto et al. (J. Pharm. Exp. Therap. 2003, 305, 347-352; Eur. J. Pharmacol. 2005, 524, 30-37). The test compounds were dissolved in DMSO at a concentration of 100 mM as stock solutions. Serial dilutions from 10 μM were made in binding buffer prior to assay. Transfected cells were resuspended in binding buffer (50 mM Tris-HCl, 40 mM MgCl2, and 0.1% bovine serum albumin, at pH 7.4) at a concentration of 4×10^6/mL at room temperature. […] Scintillant (50 μL; Microscint™20, Perkin Elmer, Boston, Mass.) was added to each well and the radioactivity was counted on a TopCount (Packard Bioscience, Meriden, Conn.). […]

Aqueous Solubility at 25° C. [1] [µg/mL]	binding affinity for CRTH2 (CRTH2)	binding selectivity for CRTH2 (DP1)	Molecule
80	–	–	CN(C)c1nc(Cc2ccc(NC(=O)c3ccc(C(F)(F)F)cc3)cc2)nc(N(C)C)c1CC(=O)O.c1ccc(CNCCNCc2ccccc2)cc1 [Benzathine, Benzathine Salt of {4,6-Bis(dimethylamino)-2-(4-(4-(trifluoromethyl)benzamido)benzyl)pyrimidin-5-yl}Acetic Acid]
5400	–	–	piperazine Salt of {4,6-Bis(dimethylamino)-2-(4-(4-(trifluoromethyl)benzamido)benzyl)pyrimidin-5-yl}Acetic Acid
–	high affinity	bind selectively	CN(C)c1nc(Cc2ccc(NC(=O)c3ccc(C(F)(F)F)cc3)cc2)nc(N(C)C)c1CC(=O)O [Formula I, {4,6-bis(dimethyl-amino)-2-(4-(4-(trifluoro-methyl)benzamido)benzyl)pyrimidin-5-yl}acetic acid]

— patent US8278310B2, “Amine salts of a CRTH2 antagonist” (Actimis Pharmaceuticals, Inc., priority 2007, dated 2012)
